Test results taken from US8642807B2, “Crystallized diacetylenic indicator compounds and methods of preparing the compounds” (Temptime Corporation, priority 2007, dated 2014).

Legend:
[1] = Comparative color-change reactivities of pressed pellets, cyan optical density after ageing at 37, 45 or 70° C. (Example 4); assay type: physicochemical; settings: for color change kinetics / reactivity relative to raw product: 37° C., FIG. 12; for activation energy: color-change (solid-state polymerization) reaction of pellets
Experimental: Sample pellets are prepared from crystalline diacetylenic monomer powder using an E-Z Press 12-Ton Hydraulic Press and KBr Pellet Kit with 13 mm die set, as supplied by International Crystal Laboratories (Garfield, N.J.). Using about 300 mg powder, a pressure of 5 to 8 tons is applied for 2-3 minutes. Samples of 2,4-hexadiyn-1,6-bis(ethylurea) precipitated from dimethyl sulfoxide, methanol and a 4:1 by weight ethanol/water mixture are prepared. Pellets of raw 2,4-hexadiyn-1,6-bis(ethylurea) crystals (“KE raw”), precipitated from a solution in hot glacial acetic acid, using methanol as a precipitant, shortly after the 2,4-hexadiyn-1,6-bis(ethylurea) was synthesized, are included as controls.
While being handled by the edges, an individual pellet is placed in a transparent heat-seal bag, about 50 mm by 115 mm, vacuum sealed and placed into a heat-sealable foil pouch. The foil pouch is vacuum-sealed using a Fuji Impulse tabletop vacuum heat sealer. The sealed foil pouch containing the pellets is stored in a freezer at −30° C., or other suitable temperature, until ready for testing.
The heat-sealed foil pouch samples containing the pellets are placed in a water bath, for example a Huber circulating water bath, set to appropriate temperatures for example 37° C., 45° C. or 70° C., and aged for suitable measured time periods such as a few days at 37° C. or a few hours at 70° C. where the reaction proceeds more rapidly. The samples are weighted to keep them immersed in the water during the test. Timing is started immediately after each pouch is placed into the water bath. The pouch is removed at the end of the designated test period and its optical density is measured.
To measure optical density the pouch is briefly immersed in a second water bath set at 20° C. to quench the sample and prevent further color change during measurement. The foil pouch is cut open leaving the pellet inside the transparent heat-sealed bag. The reaction kinetics of the diacetylenic monomer are determined by measuring the cyan optical density (O.D.) of the aged pellets using an X-Rite 404 color reflection densitometer. The optical density can be measured on an arbitrary scale and used for comparative indications of color change reactivity.
In order to compensate for the thickness of the pellets, which are about 2 mm thick, when using the densitometer, the densitometer can be raised on to an elevated platform of corresponding height.

[2] = Room temperature solubility of 4DOD in solvent systems, saturated solution dried and weighed (Example 2A); assay type: physicochemical; settings: about 25° C.; for Calculated solubility of 4DOD: stirred 16 hours
Experimental: To serve as indicator agent, a […] polymerizable diacetylenic monomer, namely 5,7-dodecadiyn-1,12 diol bis(n-octadecyl urethane), “4DOD” hereinafter, is synthesized in sufficient quantity for preparation of a master batch of ink, by the method described in Yee U.S. Pat. No. 4,215,208 at column 17, lines 47-65 and is stored in a freezer. A small quantity of 4DOD is taken from frozen storage and is tested at room temperature for solubility in various solvent systems employing the following procedure.
100 g of deionized water is weighed into a 200 mL glass beaker. 4DOD powder is added to the glass beaker until the solution is saturated allowing excess 4DOD to remain present as undissolved solid. 75 g of deionized water is weighed into another 200 mL glass beaker, and 25 g acetone is added. 4DOD is then added to the water-acetone solvent system in the glass beaker until the solution is saturated and an excess of 4DOD remains as undissolved solid. 75 g of deionized water is weighed into a third 200 mL glass beaker. 25 g ethanol is added to the water and then 4DOD is added to the water-ethanol mixture until the solution is saturated and an excess of 4DOD remains as undissolved solid. Each solution is stirred on a magnetic plate for 16 hours at a controlled room temperature of about 25° C.
After 16 hours of stirring, 7 g of each solution (soluble portion only, avoiding any undissolved solid material) is transferred to a separate aluminum foil pan. The aluminum foil pans are left to stand under a fume hood for 2 hours to allow any volatile solvent to evaporate, and are then dried in a vacuum oven for one 1 hour. Each aluminum foil pan is then weighed and the solubility of the 4DOD in each solvent system is calculated in terms of the percent of solute based on the weight of the solvent system.

Compound: CCNC(=O)NCC#CC#CCNC(=O)NCC [2,4-hexadiyn-1,6-bis(ethylurea) crystallized from pyridine]
- color change kinetics / reactivity relative to raw product [1]: faster color change kinetics than does the raw product
- activation energy [1]: about 19 kcal/mol

Compound: CCNC(=O)NCC#CC#CCNC(=O)NCC [raw product, 2,4-hexadiyn-1,6-bis(ethylurea), reference compound]
- activation energy [1]: 23 kcal/mol

Compound: CCNC(=O)NCC#CC#CCNC(=O)NCC [2,4-hexadiyn-1,6-bis(ethylurea)]
- color change kinetics / reactivity relative to raw product [1]: modestly faster reactivity than raw 2,4-hexadiyn-1,6-bis(ethylurea)
- reactivity profile ([1]; 45° C., FIG. 13): close to that of the pyridine product

Compound: 5,7-dodecadiyn-1,12-bis-n-octadecyl urethane [4DOD]
- Calculated solubility of 4DOD ([2]; 75% Water 25% Acetone): 10% wt %
- Calculated solubility of 4DOD ([2]; 100% Acetone): 32% wt %
- Calculated solubility of 4DOD ([2]; 100% Ethanol): 37% wt %
- Calculated solubility of 4DOD ([2]; Water): 0.03% wt %
- solubility in the individual organic solvent alone, in words ([2]; ethanol or acetone alone): remarkably high solubility
- solubility in water, in words ([2]; water): minimal solubility
